Measured values from patent US12233060B2, “Inhibitors of Ataxia-Telangiectasia Mutated and Rad3-related protein kinase (ATR) for use in methods of treating cancer” (THE INSTITUTE OF CANCER RESEARCH: ROYAL CANCER HOSPITAL, priority 2016, dated 2025).

Assays:
[1] = tested on: HCT116 ARID1A isogenic (+/+ and −/−) cell lines; experiment: Clonogenic survival of ARID1A isogenic cells; assay type: cell-based, human
Procedure: (§1) FIG. 2. In vitro ARID1A/ATR synthetic lethality. A. Chemical structure of VX-970. B. Western blot of ARID1A in human ARID1A isogenic HCT116 cells. C. Image of colonies in 6 well-plate clonogenic assay. HCT116 ARID1A isogenic (^+/+ and ^−/−) cell lines were exposed to increasing concentrations of the VE-821 (0, 0.1, 1 uM) and VX-970 (0, 0.01, 0.05 uM) for 14 days. D and E. Dose response clonogenic survival curve of HCT116 ARID1A isogenic (^+/+ and ^−/−) cell lines exposed to increasing concentrations of the VE-821 and VX-970 for 14 days. Error bars represent SD from triplicate experiments, ANOVA p-value of <0.0001. F. Area under curve (AUC) box whisker comparison plot for human tumor cell lines exposed to VX-970 for five days. ARID1A wild type tumor cell lines (n=15) were compared to ARID1A mutant cell lines (n=9). Student's t-test p=0.00594. G. Dose response clonogenic survival curve of mouse Arid1a isogenic ES cell lines. Experiment was performed as per (C). Error bars represent SD from triplicate experiments, ANOVA p value of <0.0001. H. Western blot of Arid1a protein expression in mouse ES Arid1a isogenic cells. I. Z score box whisker comparison plot for 86 human tumor cell lines transfected with ATR siRNA. Cells lines were transfected with siRNA and cell viability was estimated five days later by Cell Titre Glo reagent.
Short-term survival assays were performed in 384-well plates. Exponentially growing cells were plated at a concentration of 500 cells/well. Drug was added 24 h after seeding and cells were continuously exposed to the drug for five days, after which cell viability was estimated using CellTitre-Glo luminescence (Promega). For clonogenic assays, cells were seeded in 6-well plates (500 cells/well) and continuously exposed to drug 24!h after seeding for 14 days. Media containing fresh drug was replaced every 72 hours. Cells were fixed with 10% trichloroacetic acid and stained with sulphorhodamine B (Sigma-Aldrich, Gillingham, UK). Colonies were counted manually. All cell-based assays were performed at least in triplicate.

HCC1143 cells = experiment: 384 well plate cell survival after ARID1A siRNA transfection; assay type: cell-based, human; conditions: ARID1A siRNA vs control, five continuous days exposure
Excerpt: FIG. 1. […] A. Structure of VE-821 and schematic describing workflow for parallel VE-821 chemosensitisation screens in MCF12A and HCC1143 cells. B. Scatter plots of VE-821 Drug Effect (DE) Z-scores from all 1280 siRNAs used in the in the chemosensitisation screens. The DE Z-score threshold of −2 (red line) was used for defining candidate synthetic lethal interactions is shown. C. Venn diagram of DE<−2 VE-821 sensitisation hits in MCF12A and HCC1143 cells. Numbers shown indicate number of sensitisation genes. Amongst the 30 genes with DE Z-scores <−2 in both cell lines, seven well-established tumour suppressor genes were identified. D. Bar charts illustrating DE Z-scores for control, non-targeting, siRNAs (siALLSTAR, siCON1, siCON2) and ARID1A siRNAs in the chemosensitisation screens. Values shown are median from triplicate screens and error bars represent SD. […]
A siRNA library was purchased from Dharmacon. […] RNAi screening conditions were optimised and raw CellTitre-Glo (Promega) luminescent viability readings were generated as previously described21. […]
(§2) Short-term survival assays were performed in 384-well plates. […] Drug was added 24 h after seeding and cells were continuously exposed to the drug for five days, after which cell viability was estimated using CellTitre-Glo luminescence (Promega). […] Colonies were counted manually. […]

[2] = tested on: Arid1a+/+ and Arid1a−/− mouse embryonic stem (ES) cells; experiment: Clonogenic survival of mouse Arid1a isogenic ES cells; assay type: cell-based; conditions: p<0.001 ANOVA
Procedure: as §1, with “I. Z score box whisker comparison plot for 86 human tumor cell lines transfected with ATR siRNA. Cells lines were transfected with siRNA and cell viability was estimated five days later by Cell Titre Glo reagent.” left out
as §2

[3] = tested on: TOV21G (ARID1A mutant) and RMG1 (ARID1A wildtype) cells; experiment: Five-day dose response in OCCC cell lines TOV21G and RMG1; assay type: cell-based, human; conditions: 5 days exposure
Procedure: FIG. 3. In vivo ARID1A/ATR synthetic lethality. A. Schematic of VX-970 therapy experiment in mice bearing established HCT116 ARID1A^+/+ and ARID1A^−/− xenografts. Cells were inoculated subcutaneously into nude mice and tumors allowed to establish for 10 days. Mice were then randomized to treatment regimens of either VX-970 (60 mg/kg, 4× weekly by oral gavage) or vehicle. Mice were then treated for a subsequent 40 days. Tumor volume was monitored twice weekly. B. Relative tumor volume plot from (A) showing efficacy of VX-970 and selectivity for ARID1A^−/− xenografts* p=0.024, ANOVA. C. Schematic of tumor incidence experiment in mice with non-established HCT116 ARID1A^+/+ and ARID1A^−/− xenografts. Mice were inoculated with cells as before, randomized and then treated with VX-970. […] Tumor volume was monitored twice weekly and overall tumour incidence was assessed 40 days later. […] PARP-1, cleaved PARP-1 (85 kDa fragment) and tubulin were detected by western blot. […] Caspase3/7 activity was assessed using Caspase-Glo and total cellular viability was estimated using CellTitre-Glo. Luminescence ratios for Caspase-Glo (i.e. apoptotic cells) and CellTitre-Glo (ie viable cells) was determined for each dose and normalized to DMSO treated samples. *Student's t-test, p<0.05. […]
Short-term survival assays were performed in 384-well plates. […] Colonies were counted manually. […]

ATR = ATR (Homo sapiens, UniProt Q13535); conditions: ATR catalytic inhibitor; reference 15; cited from earlier work
Chain of ATR (Q13535 whole entry): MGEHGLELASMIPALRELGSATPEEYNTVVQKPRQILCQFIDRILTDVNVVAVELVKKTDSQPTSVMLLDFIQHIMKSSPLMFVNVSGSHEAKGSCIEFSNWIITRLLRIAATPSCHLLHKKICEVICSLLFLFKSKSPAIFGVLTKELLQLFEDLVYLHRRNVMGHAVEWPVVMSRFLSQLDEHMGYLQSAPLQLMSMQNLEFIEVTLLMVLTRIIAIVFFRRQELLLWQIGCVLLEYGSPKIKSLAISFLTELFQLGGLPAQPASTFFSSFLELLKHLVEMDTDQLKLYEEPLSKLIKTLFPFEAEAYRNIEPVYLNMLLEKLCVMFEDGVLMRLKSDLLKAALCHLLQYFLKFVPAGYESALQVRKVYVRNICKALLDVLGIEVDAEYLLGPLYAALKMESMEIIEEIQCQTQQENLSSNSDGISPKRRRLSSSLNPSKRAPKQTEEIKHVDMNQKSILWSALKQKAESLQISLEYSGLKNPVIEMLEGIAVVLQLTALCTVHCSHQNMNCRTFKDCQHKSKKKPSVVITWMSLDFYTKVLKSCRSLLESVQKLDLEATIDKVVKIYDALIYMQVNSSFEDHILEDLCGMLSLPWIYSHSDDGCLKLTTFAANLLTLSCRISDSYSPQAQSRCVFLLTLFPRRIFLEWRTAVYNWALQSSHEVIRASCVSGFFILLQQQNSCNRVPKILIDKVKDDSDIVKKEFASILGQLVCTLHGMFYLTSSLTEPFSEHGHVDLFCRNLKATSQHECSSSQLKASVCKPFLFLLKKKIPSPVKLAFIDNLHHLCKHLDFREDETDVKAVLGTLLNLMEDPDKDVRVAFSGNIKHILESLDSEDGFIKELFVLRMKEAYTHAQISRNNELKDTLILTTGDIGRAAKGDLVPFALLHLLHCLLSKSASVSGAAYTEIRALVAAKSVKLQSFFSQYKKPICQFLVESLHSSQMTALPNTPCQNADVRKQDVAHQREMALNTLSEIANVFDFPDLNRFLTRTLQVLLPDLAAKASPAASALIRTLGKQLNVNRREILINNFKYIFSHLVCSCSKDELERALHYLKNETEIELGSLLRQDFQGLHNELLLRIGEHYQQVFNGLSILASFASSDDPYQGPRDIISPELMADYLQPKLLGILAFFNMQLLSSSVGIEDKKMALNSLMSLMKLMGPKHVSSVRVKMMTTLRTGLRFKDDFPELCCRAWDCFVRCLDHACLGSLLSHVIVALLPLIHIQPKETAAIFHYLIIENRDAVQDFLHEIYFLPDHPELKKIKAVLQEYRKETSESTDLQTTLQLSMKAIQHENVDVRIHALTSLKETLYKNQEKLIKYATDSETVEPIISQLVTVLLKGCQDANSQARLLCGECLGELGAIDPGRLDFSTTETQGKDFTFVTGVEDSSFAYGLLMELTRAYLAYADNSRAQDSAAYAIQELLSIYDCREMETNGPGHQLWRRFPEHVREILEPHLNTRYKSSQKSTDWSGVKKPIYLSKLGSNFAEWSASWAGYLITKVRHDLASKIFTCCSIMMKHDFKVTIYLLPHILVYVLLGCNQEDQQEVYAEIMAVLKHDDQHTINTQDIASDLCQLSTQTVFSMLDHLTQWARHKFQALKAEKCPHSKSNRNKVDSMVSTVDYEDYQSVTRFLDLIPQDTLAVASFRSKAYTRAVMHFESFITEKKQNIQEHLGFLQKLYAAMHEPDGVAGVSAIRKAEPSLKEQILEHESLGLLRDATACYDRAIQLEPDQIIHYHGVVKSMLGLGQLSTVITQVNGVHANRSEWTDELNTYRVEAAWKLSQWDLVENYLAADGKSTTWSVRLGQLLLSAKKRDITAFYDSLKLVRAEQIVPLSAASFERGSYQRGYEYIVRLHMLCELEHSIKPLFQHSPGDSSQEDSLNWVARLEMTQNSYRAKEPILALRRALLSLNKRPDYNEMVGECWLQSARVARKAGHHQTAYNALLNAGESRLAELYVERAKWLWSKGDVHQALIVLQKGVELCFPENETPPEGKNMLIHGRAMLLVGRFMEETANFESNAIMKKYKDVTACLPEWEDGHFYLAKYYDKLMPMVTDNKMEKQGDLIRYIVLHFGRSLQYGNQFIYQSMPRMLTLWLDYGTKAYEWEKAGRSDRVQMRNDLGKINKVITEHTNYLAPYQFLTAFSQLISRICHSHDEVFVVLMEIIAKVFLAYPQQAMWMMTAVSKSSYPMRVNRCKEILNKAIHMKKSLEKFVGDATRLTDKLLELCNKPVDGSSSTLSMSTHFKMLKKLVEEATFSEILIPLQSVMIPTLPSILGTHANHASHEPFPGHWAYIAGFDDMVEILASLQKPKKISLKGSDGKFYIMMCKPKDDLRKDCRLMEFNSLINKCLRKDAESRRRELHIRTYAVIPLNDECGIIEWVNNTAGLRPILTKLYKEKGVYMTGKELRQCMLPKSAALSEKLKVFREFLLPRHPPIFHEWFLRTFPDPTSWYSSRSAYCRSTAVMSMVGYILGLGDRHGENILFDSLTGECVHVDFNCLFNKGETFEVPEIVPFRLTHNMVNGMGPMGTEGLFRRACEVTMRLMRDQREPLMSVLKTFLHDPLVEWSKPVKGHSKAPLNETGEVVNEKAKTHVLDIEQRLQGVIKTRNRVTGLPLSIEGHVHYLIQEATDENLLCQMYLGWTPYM
Chain of ATR (Q8WXE1 whole entry partner): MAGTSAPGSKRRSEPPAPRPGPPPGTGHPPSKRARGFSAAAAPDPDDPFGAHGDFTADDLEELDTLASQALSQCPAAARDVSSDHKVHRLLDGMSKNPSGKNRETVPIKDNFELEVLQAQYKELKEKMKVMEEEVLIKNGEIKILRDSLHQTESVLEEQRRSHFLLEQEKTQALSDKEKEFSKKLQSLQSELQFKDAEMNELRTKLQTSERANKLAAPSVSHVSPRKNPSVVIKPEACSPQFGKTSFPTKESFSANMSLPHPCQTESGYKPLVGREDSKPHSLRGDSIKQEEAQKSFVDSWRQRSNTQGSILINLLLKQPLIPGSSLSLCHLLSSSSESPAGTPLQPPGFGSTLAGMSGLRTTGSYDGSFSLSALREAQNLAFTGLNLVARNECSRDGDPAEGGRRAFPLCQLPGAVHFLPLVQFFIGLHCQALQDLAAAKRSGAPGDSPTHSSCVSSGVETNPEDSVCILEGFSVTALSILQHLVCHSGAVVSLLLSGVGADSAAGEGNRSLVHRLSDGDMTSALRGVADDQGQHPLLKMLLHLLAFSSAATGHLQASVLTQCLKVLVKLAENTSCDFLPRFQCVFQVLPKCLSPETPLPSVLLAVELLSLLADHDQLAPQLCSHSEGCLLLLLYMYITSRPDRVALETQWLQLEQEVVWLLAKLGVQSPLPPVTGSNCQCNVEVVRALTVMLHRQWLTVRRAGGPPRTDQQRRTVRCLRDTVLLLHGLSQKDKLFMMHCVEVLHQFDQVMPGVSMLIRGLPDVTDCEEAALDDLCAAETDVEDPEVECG

| Structure (SMILES) | ARID1A−/− selectivity [1] | ATRi sensitivity caused by ARID1A siRNA (HCC1143 cells) | selective targeting of Arid1a−/− ES cells in clonogenic assays [2] | sensitivity of TOV21G vs RMG1 [3] | Ki (ATR) |
| --- | --- | --- | --- | --- | --- |
| CC(=O)O[C@H]1C(=O)[C@@]2(C)[C@H]([C@H](OC(=O)c3ccccc3)[C@]3(O)C[C@H](OC(=O)[C@H](O)[C@@H](NC(=O)c4ccccc4)c4ccccc4)C(C)=C1C3(C)C)[C@]1(OC(C)=O)CO[C@@H]1C[C@@H]2O [taxol] | neither taxol or methotrexate elicited ARID1A^−/− selectivity |  |  |  |  |
| CN(Cc1cnc2nc(N)nc(N)c2n1)c1ccc(C(=O)N[C@@H](CCC(=O)O)C(=O)O)cc1 [methotrexate] | neither taxol or methotrexate elicited ARID1A^−/− selectivity |  |  |  |  |
| CS(=O)(=O)c1ccc(-c2cnc(N)c(C(=O)Nc3ccccc3)n2)cc1 [VE-821, 3-amino-6-(4-methylsulfonylphenyl)-N-phenyl-pyrazine-2-carboxamide] |  | significantly enhanced sensitivity to VE-821 | selectively targeted Arid1a^−/− ES cells | more sensitive to both VE-821 and VX-970 | 0.013 µM |
